We go through three molecules from US9399042B2, “Method for the removal of subcutaneous fat accumulations by subcutaneous lipolysis by administering a combination of glycyrrhizic acid and soybean phospholipids” (Lichtblick GmbH, priority 2010, dated 2016).

The test system of data set [1] is 3T3-L1 cells. As to the kind of experiment: Lipolysis assay (glycerol release) with differentiated 3T3-L1 cells. The note with it: 10 μM, 4 hours, 3% BSA/PBS; positive control. Format: cell-based, murine. Here is the method:
3T3-L1 cells were stimulated by a hormone cocktail to adipogenesis and differentiated for another 8 days to mature adipocytes. […] The lipolytic activity was measured using a lipolysis assay, as described below: The cleavage of triglycerides into glycerol and the three fatty acids is known as lipolysis. This process is catalyzed primarily by the hormone-sensitive lipase and the adipose triglyceride lipase. Using a lipolysis assay the lipolytic activity of cells can be detected. This assay is based on the measurement of glycerol emerged during lipolysis, which is secreted by the cells into the medium. The glycerol is metabolized by enzymatic reactions to glycerol-1-phosphate and then to dihydroxy acetone phosphate. Thereby hydrogen peroxide is produced, which is quantified photometrically with a peroxidase stain reaction. In order to be able to make statements about the lipolytic action of substances, they are compared with the basal lipolysis activity of the cells and with the lipolysis stimulated by the beta-adrenergic receptor. Such a stimulation can be caused by isoproterenol. FIG. 7: Graphical picture of the analysis of the lipolysis assay (μg glycerol/μg DNA) with treated differentiated 3T3-L1 cells. 3T3-L1 were stimulated by a hormonal induction cocktail to adipogenesis and then differentiated for 8 days. […]

The subject of data set [2] is Adipose-Derived Stem Cells (ADSC). The experiment in a line: Propidium iodide (PI) staining of treated differentiated ADSCs (CLSM). Format: cell-based, human. Here is the method: Further analysis of the cell-damaging effect of sodium deoxycholate on ADSCs was performed by PI staining of the treated cells and subsequent analysis with CLSM. The differentiated, mature adipocytes were treated with: • 0.05 mg/ml, 0.1 mg/ml and 0.5 mg/ml sodium deoxycholate for 4 hours.
Then the cells were incubated in a medium containing 5 µg/ml propidium iodide for 5 minutes. This was followed by microscopic analysis with CLSM at a 63-fold magnification (FIG. 3c).
After the incubation period (4 hours) the adipocytes were stained with […] PI and analyzed with CLSM. In the upper PI-row (a-e) fluorescence images of PI-stained cells are shown. In the lower PK-row (a-e) the corresponding phase contrast images are presented with the overlapping fluorescence images over one another.
A further analysis of a cell-damaging effect of phosphatidyl choline on ADSCs was performed by PI staining of the treated cells and subsequent analysis with CLSM. The differentiated, mature adipocytes were treated with: • 5 mg/ml, 10 mg/ml and 15 mg/ml phosphatidyl choline for 4 hours.
Then the cells were incubated in a medium containing 5 μg/ml propidium iodide for 5 minutes. This was followed by microscopic analysis with CLSM at a 63-fold magnification (FIG. 4c).
After the incubation period (4 hours) the adipocytes were stained with 5 μg/ml PI and analyzed with CLSM. In the upper PI-row (a-e) fluorescence images of PI-stained cells are shown. In the lower PK-row (a-e) the corresponding phase contrast images are presented with the overlapping fluorescence images over one another (Size bar=20 μm).

Data set [3] has as its system 3T3-L1 cells. The experiment in a line: Membrane damaging / cytotoxic effect on differentiated 3T3-L1 cells (light microscopy, CLSM phase contrast). As to conditions: for In vitro Cell damaging causing concentration: single agent. Format: cell-based, murine. Here is the method: In order to test in vitro the effects of phosphatidyl choline on the membrane integrity and stability, differentiated 3T3-L1 cells were incubated with different concentrations of phosphatidyl choline for 4 and 24 hours and then analyzed by light microscopy.
As a model system, the murine preadipocyte cell line 3T3-L1 was used for the studies. 3T3-L1 cells were stimulated to adipogenesis by a conventional hormone cocktail (corticosterone, isobutylmethylxanthine, indomethacin, insulin) and differentiated for another 8 days to mature adipocytes.
The mature adipocytes of the 3T3-L1 cells were treated with various concentrations of phosphatidyl choline.
First, a phosphatidyl choline stock solution was prepared: • 500 mg/ml phosphatidyl choline dissolved in 70% ethanol
The used concentrations of phosphatidyl choline were: • 1 mg/ml, 5 mg/ml, 10 mg/ml, 15 mg/ml, 20 mg/ml
FIG. 1a: Phase contrast images of treated differentiated 3T3-L1 cells in 2D cell culture. The treatment was as follows: • (a) control=untreated cells in differentiation medium • (b) 1 mg/ml of phosphatidyl choline after 24 hours • (b) 5 mg/ml of phosphatidyl choline after 24 hours • (d) 10 mg/ml of phosphatidyl choline after 24 hours • (e) 15 mg/ml of phosphatidyl choline after 24 hours • (f) 20 mg/ml of phosphatidyl choline after 24 hours • (Size bar=100 μm).
FIG. 1b: Phase contrast images using a CLSM at a 63-fold magnification of treated differentiated 3T3-L1 cells in 2D cell culture. The treatment was as follows: • (a) control=untreated cells in differentiation medium after 4 hours • (b) 1 mg/ml of phosphatidyl choline after 4 hours • (c) 5 mg/ml of phosphatidyl choline after 4 hours • (d) 10 mg/ml of phosphatidyl choline after 4 hours • (Size bar=20 μm).
As a model system the murine preadipocyte cell line 3T3-L1 was used for the studies. 3T3-L1 cells were stimulated by a hormone cocktail (corticosterone, isobutylmethylxanthine, indomethacin, insulin) to adipogenesis and differentiated for another 8 days to mature adipocytes.
The mature adipocytes of 3T3-L1 cells were incubated with various concentrations of phosphatidyl choline between 0.1 mg/ml and 50 mg/ml. The phosphatidyl choline was combined with 2-20 mg/ml glycyrrhizinate and 18-180 mg/ml maltose.
The incubation of mature 3T3-L1 cells was performed for a duration of 4 hours with the substances combination.
Then the treated cells were examined at a 63-fold magnification by light microscopy for a membrane destabilizing and cytotoxic effect.
FIG. 9: Phase contrast images of treated differentiated 3T3-L1 cells. 3T3-L1 were stimulated by a hormonal induction cocktail to adipogenesis and then differentiated for 8 days. The mature adipocytes were treated for 24 hours with phosphatidyl choline and sodium deoxycholate from Lipostabil® with the following concentrations: • (a) untreated cells in differentiation medium, • (b) 0.01 mg/ml phosphatidyl choline+0.005 mg/ml Na-deoxycholate, • (c) 0.1 mg/ml phosphatidyl choline+0.05 mg/ml Na-deoxycholate, • (d) 0.25 mg/ml phosphatidyl choline+0.125 mg/ml Na-deoxycholate, • (e) 0.5 mg/ml phosphatidyl choline+0.25 mg/ml Na-deoxycholate, • (f) 1 mg/ml phosphatidyl choline+0.5 mg/ml Na-deoxycholate.
The analysis was done using the light microscope. Cells with damaged membrane or cell fragments are marked examplary with black arrows, while free lipid droplets are indicated by white arrows.

Data set [4] relates to Adipose-Derived Stem Cells (ADSC). As to the kind of experiment: Membrane damaging effect on differentiated ADSCs (light microscopy, CLSM). Format: cell-based, human. The note with it: 4 hours. An excerpt: The human subcutaneous adipose tissue can serve as a potential source of adult stem cells. These so-called “Adipose-Derived Stem Cells” (ADSC) are multipotent and may be differentiated by appropriate stimuli into various cell types, e.g. osteoblasts, chondrocytes, adipocytes. The isolation of ADSCs from human subcutaneous adipose tissue which is removed during plastic reductive surgery, is shown schematically in FIG. 2.
First the fat was washed with buffer to remove hematopoietic cells, and then crushed. The resulting pieces of fatty tissue were digested with collagenase. By centrifugation of the digested tissue the stromal-vascular fraction was separated and the floated mature adipocytes were discarded. The stromal-vascular fraction in the pellet is composed of a heterogeneous cell population of blood cells, fibroblasts, pericytes, endothelial cells and preadipocytes.
This cell population was transferred into a culture bottle with medium, wherein a portion of the cells adhered. By adding a suitable cocktail consisting of insulin, dexamethasone, indomethacin and isobutylmethylxanthine or consisting of insulin, cortisol, troglitazone, triiodothyronine and isobutylmethylxanthine the cells were stimulated for adipogenesis and an improved adipogenic differentiation was achieved.
The ADSCs of Example 4 were stimulated by a hormone cocktail (insulin, cortisol, troglitazone, triiodothyronine and isobutylmethylxanthine) to adipogenesis and then differentiated for another 21 days into mature adipocytes.
This was followed by a treatment with sodium deoxycholate. For this the following concentrations were used: • 0.01 mg/ml, 0.05 mg/ml, 0.075 mg/ml, 0.1 mg/ml and 0.5 mg/ml.
The incubation period was 4 hours.
This concentration range has been already proven to be effective in 3T3-L1. After the incubation period of 4 hours, the differentiated treated cells were subsequently viewed by light microscopy (FIG. 3a).
Additionally, ADSCs treated with sodium deoxycholate were examined with CLSM. The differentiated, mature adipocytes were treated with: • 0.01 mg/ml, 0.05 mg/ml and 0.1 mg/ml sodium deoxycholate for 4 hours.
This was followed by microscopic analysis with CLSM at a 63-fold magnification (FIG. 3b). […]

Entries after “also recorded” stand apart in the source; their conditions may differ. Read-outs that look alike come from different tables or passages of the source. Bounds are passed on as bounds.

In the case of `CC(C)NCC(O)c1ccc(O)c(O)c1` (centres unmarked) [isoproterenol], the “lipolytic activity compared to the basal level” value with 3T3-L1 cells [1] is “eight times the basal level”.
For Triton, the “PI staining (membrane integrity)” value in data set [2] is “red cells stained by PI”.
For sodium deoxycholate [Na-deoxycholate], the membrane damaging effect entry in the data set on 3T3-L1 cells [3] (0.05 mg/ml) was “membrane-damaging effects occurred”; in the data set with 3T3-L1 cells [3] (0.5 mg/ml), “highly toxic”. Besides, in the data set on 3T3-L1 cells [3] (20 mg/ml), the “effect on the cell membrane” value was “clear destruction of the cell membrane”. Besides, the “In vitro Cell damaging causing concentration” value with 3T3-L1 cells [3] was at least 0.05 mg/mL; in the data set with 3T3-L1 cells [3] (listed as Na Deoxycholate) it was “from 0.05 mg/ml”. Further, the “membrane damaging / cytotoxic effect” value in data set [4] (0.01 mg/ml) is on record as “no effect on the cells; also recorded: no cytotoxic effect”; in data set [4] (0.05 mg/ml), “slight damages of the cell membrane”; in data set [4] (0.05 mg/ml, listed as Na-DC), “injury”; in data set [4] (0.1 mg/ml, CLSM) it was “strong membrane damage”; in data set [4] (0.5 mg/ml), “significantly toxic effect on the cells”; in data set [4] (0.5 mg/ml, listed as Na-DC) it was “dead”. Besides, the “PI staining (membrane integrity)” value in data set [2] (0.05 mg/ml, 4 hours) was “no red-stained cells”; in data set [2] (0.1 mg/ml, 4 hours), “individual red-stained cells”; in data set [2] (0.5 mg/ml, 4 hours), “many and clearly red-stained cells”; in data set [2] (5, 10 and 15 mg/ml, 4 hours), “no red-stained cells”.
